Results published in US8841310B2, “Combinations of a pyrimidine containing NNRTI with RT inhibitors” (Janssen R & D Ireland, priority 2003, dated 2014).
Like-named read-outs stand apart in the source and are kept apart here.

How the values were obtained:
[1] = test system: HIV-1; conditions: cited from earlier work
[2] = test system: HIV-1; conditions: human PBMCs and MT-2 cells, increasing drug concentrations; cited from earlier work
[3] = biological target: T1, HIV-1 RT (Human immunodeficiency virus type 1 group M subtype B, UniProt P04585); conditions: read-out: inhibition constant; cited from earlier work
T1 construct: The primary target of tenofovir diphosphate is reverse transcriptase (RT)

[4] = test system: HIV-1 wild type; test: MT-4 cell-based antiviral assay (viral cytopathicity, tetrazolium); conditions: Human immunodeficiency virus 1, MT4
Method: (§1) Compound E-TMC278 was tested in a cell-based assay, using natural host cells of HIV. MT-4 cells (a cell line of human T cells) were infected with HIV-1 (wild type or mutants) and exposed to different concentrations of antiviral compound in the presence of 10% fetal calf serum. Cytotoxicity was determined in parallel with the antiviral activity so that the selectivity of the antiviral effect could be assessed. Active compounds have to penetrate the cell membrane in order to interfere with replication steps inside the cell.
(§2) After four days of incubation at 37° C., the viability of the HIV and mock-infected cells was assessed by an automated tetrazolium-based calorimetric assay. This method enabled the calculation of both the 50% inhibitory concentration for inhibition of viral cytopathicity (IC50), the IC90, and the 50% cytotoxic concentration (CC50). The ratio CC50/IC50, also called the selectivity index, is an indication of the specificity of the antiviral effect. Tested HIV strains included: Wild type (wt) HIV-1; a panel of single and double mutants, obtained by site-directed mutagenesis (SDM), and a panel of clinical isolates, selected for resistance against NNRTIs.

[5] = test system: HIV-1 double mutant 100I + 103N; test: MT-4 cell-based antiviral assay, SDM mutant
Method: as §1, §2
(§3) A limited panel of HIV-1 mutants was constructed using site-directed mutagenesis (SDM) and homologous recombination techniques. […] Nevirapine (NVP) and efavirenz (EFV) were included as controls.

[6] = test system: HIV-1 double mutant 101E + 103N; test: MT-4 cell-based antiviral assay, SDM mutant; conditions: Human immunodeficiency virus 1, MT4, 96 h
Method: as §1, §2, §3

[7] = test system: HIV-1 double mutant 103N + 181I; test: MT-4 cell-based antiviral assay, SDM mutant; conditions: Human immunodeficiency virus 1, MT4, 96 h
Method: as §1, §2, §3

[8] = test system: HIV-1 double mutant 227L + 106A; test: MT-4 cell-based antiviral assay, SDM mutant
Method: as §1, §2, §3

[9] = test system: HIV-1 mutant 100I; test: MT-4 cell-based antiviral assay, SDM mutant
Method: as §1, §2, §3

[10] = test system: HIV-1 mutant 101E; test: MT-4 cell-based antiviral assay, SDM mutant; conditions: Human immunodeficiency virus 1, MT4
Method: as §1, §2, §3

[11] = test system: HIV-1 mutant 103N; test: MT-4 cell-based antiviral assay, SDM mutant
Method: as §1, §2, §3

[12] = test system: HIV-1 mutant 106A; test: MT-4 cell-based antiviral assay, SDM mutant; conditions: Human immunodeficiency virus 1, MT4
Method: as §1, §2, §3

[13] = test system: HIV-1 mutant 108I; test: MT-4 cell-based antiviral assay, SDM mutant; conditions: Human immunodeficiency virus 1, MT4
Method: as §1, §2, §3

[14] = test system: HIV-1 mutant 138K; test: MT-4 cell-based antiviral assay, SDM mutant; conditions: Human immunodeficiency virus 1, MT4
Method: as §1, §2, §3

[15] = test system: HIV-1 mutant 179D; test: MT-4 cell-based antiviral assay, SDM mutant; conditions: Human immunodeficiency virus 1, MT4
Method: as §1, §2, §3

[16] = test system: HIV-1 mutant 179E; test: MT-4 cell-based antiviral assay, SDM mutant; conditions: Human immunodeficiency virus 1, MT4
Method: as §1, §2, §3

[17] = test system: HIV-1 mutant 181C; test: MT-4 cell-based antiviral assay, SDM mutant
Method: as §1, §2, §3

[18] = test system: HIV-1 mutant 188C; test: MT-4 cell-based antiviral assay, SDM mutant; conditions: Human immunodeficiency virus 1, MT4
Method: as §1, §2, §3

[19] = test system: HIV-1 mutant 188H; test: MT-4 cell-based antiviral assay, SDM mutant; conditions: Human immunodeficiency virus 1, MT4
Method: as §1, §2, §3

[20] = test system: HIV-1 mutant 188L; test: MT-4 cell-based antiviral assay, SDM mutant
Method: as §1, §2, §3

[21] = test system: HIV-1 mutant 190A; test: MT-4 cell-based antiviral assay, SDM mutant; conditions: Human immunodeficiency virus 1, MT4
Method: as §1, §2, §3

[22] = test system: HIV-1 mutant 190S; test: MT-4 cell-based antiviral assay, SDM mutant; conditions: Human immunodeficiency virus 1, MT4
Method: as §1, §2, §3

[23] = test system: HIV-1 mutant 225H; test: MT-4 cell-based antiviral assay, SDM mutant; conditions: Human immunodeficiency virus 1, MT4
Method: as §1, §2, §3

[24] = test system: HIV-1 mutant 227C; test: MT-4 cell-based antiviral assay, SDM mutant
Method: as §1, §2, §3

[25] = test system: HIV-1 mutant 227L; test: MT-4 cell-based antiviral assay, SDM mutant; conditions: Human immunodeficiency virus 1, MT4
Method: as §1, §2, §3

[26] = test system: HIV-1 mutant 236L; test: MT-4 cell-based antiviral assay, SDM mutant; conditions: Human immunodeficiency virus 1, MT4
Method: as §1, §2, §3

[27] = test system: HIV-1 mutant 234I; test: MT-4 cell-based antiviral assay, SDM mutant; conditions: Human immunodeficiency virus 1, MT4
Method: as §1, §2, §3

[28] = test system: wild type HIV-1; test: Development of resistance in vitro, MT4 cells, high multiplicity of infection; type: cell-based; conditions: wild type HIV-1, >1 infectious virus per cell, all tested concentrations, total 30 days
Text: Emerging virus was collected for pheno- and genotyping. Cultures without evidence of virus replication were further sub-cultivated in the presence of the same concentration of inhibitor for a total duration of 30 days (10 passages).

[29] = test system: monotropic HIV strain Ba-L; test: MO-DC/CD4(+) T cell co-culture model of sexual HIV transmission; type: cell-based; conditions: in words
Text: Immature monocyte derived dendritic cells (immMO-DC) represent a good model for interstitial dendritic cells, which are early targets during sexual HIV transmission and important initiators of the immune response. These immMO-DC were used in “in vitro” models to test the prevention of HIV infection via sexual intercourse or related intimate contact between partners.
For instance, in one model, monocyte-derived dendritic cells (MO-DC) were infected for 2-hours with the monotropic HIV strain Ba-L at a multiplicity of infection (MOI) of 10^−3. After infection, cells were washed 6 times and resuspended in 10% BCS at 400.000 cells/ml. Autologous CD4(+) T cells were purified out of the lymphocyte fraction of the same elutration as the MO-DC and used at a concentration of 2×10^6 cells/ml ((ratio MO-DC/CD4(+) T: 1/5).
A serial dilution of a compound of formula (I) (test compound) was added to the MO-DC/CD4(+) T cell co-cultures. Each experiment was done in 96-well plates, in which each cup contained 50 μl of MO-DC, 50 μl of CD4(+) T cells and 100 μl of test compound. Half of the culture medium, with test compound, was refreshed twice weekly. Supernatants were analysed in ELISA after 14 days of culture. To determine antiviral activity, the test compound concentration able to suppress 50% of the viral replication at the end of the primary cultures (EC50) was measured.

[30] = test system: HIV-1 double mutant 103N + 181C; test: MT-4 cell-based antiviral assay, SDM mutant; conditions: Human immunodeficiency virus 1, MT4, read-out: IC50 value
Method: as §1, §2, §3

[31] = test system: HIV; conditions: short course of monotherapy; cited from earlier work
[32] = test system: wild-type or zidovudine-resistant HIV-1 strains; conditions: MT-4 cells; cited from earlier work
[33] = test system: laboratory strain of HIV with combination of 65R, 74V, 115F and/or 184V; conditions: combination of resistance mutations; cited from earlier work
[34] = test system: HIV-1 M184V; conditions: cited from earlier work
[35] = test system: recombinant virus expressing the K65R mutation; conditions: in vitro; cited from earlier work
[36] = test system: clinical HIV strains expressing the M184V mutation; conditions: cited from earlier work
[37] = test system: simian immunodeficiency virus; conditions: SIV after 5 to 15 weeks treatment, 30 mg/kg, newborn rhesus macaques; cited from earlier work
[38] = wild type, MT-4 cells, 10% fetal calf serum, read-out: IC50
[39] = Human immunodeficiency virus 1, MT4, 96 h, 100I + 103N, MT-4 cells
[40] = Human immunodeficiency virus 1, MT4, 96 h
[41] = Human immunodeficiency virus 1, MT4
[42] = Human immunodeficiency virus 1, MT4, read-out: IC50 value

Nc1nc(=O)n([C@@H]2CS[C@H](CO)O2)cc1F (racemic) [(−)-beta-enantiomer of FTC, Emtricitabine]
in vitro anti-HIV-1 activity relative to the (+)-beta-enantiomer [1]: 20 fold

Nc1nc(=O)n([C@@H]2CS[C@H](CO)O2)cc1F (racemic) [FTC, (±)-cis-4-amino-5-fluoro-1-[2-(hydroxymethyl)-1,3-oxathiolan-5-yl]-2(1H)-pyrimidinone]
cycles of infection until highly drug-resistant variants dominated [2]: two or more

CC(Cn1cnc2c(N)ncnc21)OCP(=O)(O)OP(=O)(O)OP(=O)(O)O (stereo in doubt) [Tenofovir diphosphate]
Ki [3]: ~900 nM

O=C1Nc2ccc(Cl)cc2[C@@](C#CC2CC2)(C(F)(F)F)O1 [EFV, efavirenz]
IC50 [4, 38]: 1.4 nM | IC50 [5, 39]: 10000 nM | IC50 [6]: 84 nM | IC50 [7]: 37 nM | IC50 [8, 40]: 8 nM | IC50 [9, 41]: 35 nM | IC50 [10]: 5 nM | IC50 [11, 41]: 28 nM | IC50 [12]: 23 nM | IC50 [13]: 2 nM | IC50 [14]: 1.3 nM | IC50 [15]: 6 nM | IC50 [16]: 5 nM | IC50 [17, 41]: 2 nM | IC50 [18]: 5 nM | IC50 [19]: 9 nM | IC50 [20, 41]: 78 nM | IC50 [21]: 8 nM | IC50 [22]: 275 nM | IC50 [23]: 2 nM | IC50 [24, 41]: 36 nM | IC50 [25]: 0.3 nM | IC50 [26]: 1 nM

Cc1ccnc2c1NC(=O)c1cccnc1N2C1CC1 [NVP, 11-cyclopropyl-5,11-dihydro-4-methyl-6H-dipyrido-[3,2-b: 2′,3′-e][1,4]diazepin-6-one]
IC50 [4, 38]: 81 nM | IC50 [5, 39]: 10000 nM | IC50 [6]: 7030 nM | IC50 [7]: 10000 nM | IC50 [8, 40]: 10000 nM | IC50 [9, 41]: 597 nM | IC50 [10]: 547 nM | IC50 [11, 41]: 2880 nM | IC50 [12]: 2980 nM | IC50 [14]: 64 nM | IC50 [15]: 161 nM | IC50 [16]: 158 nM | IC50 [17, 41]: ≥ 10000 nM | IC50 [18]: 3760 nM | IC50 [19]: 241 nM | IC50 [20, 41]: 10000 nM | IC50 [21]: 4100 nM | IC50 [22]: 10000 nM | IC50 [23]: 171 nM | IC50 [24, 41]: 1820 nM | IC50 [25]: 78 nM | IC50 [27]: 45 nM | IC50 [26]: 41 nM | time to emergence of resistant virus [28]: 3 to 6 days

Cc1cc(C=CC#N)cc(C)c1Nc1ccnc(Nc2ccc(C#N)cc2)n1 [TMC278, 4-[[4-[[4-(2-cyanoethenyl)-2,6-dimethylphenyl]-amino]-2-pyrimidinyl]-amino]-benzonitrile]
inhibition of HIV replication in MO-DC/CD4(+) T cell co-cultures [29]: potently inhibits HIV replication

Cc1cc(/C=C\C#N)cc(C)c1Nc1ccnc(Nc2ccc(C#N)cc2)n1 [Z-TMC278, (Z)-4-[[4-[[4-(2-cyanoethenyl)-2,6-dimethylphenyl]-amino]-2-pyrimidinyl]-amino]-benzonitrile]
IC50 ([4]; Table 1, HIV RT mutation: Wild-type, read-out: IC50 value): 0.6 nM | IC50 ([5]; Human immunodeficiency virus 1, MT4, read-out: IC50 value, Table 1, HIV RT mutation: 100I + 103N): 790 nM | IC50 [30]: 40 nM | IC50 [8, 42]: 4 nM | IC50 [9, 42]: 6.3 nM | IC50 [11, 42]: 1.6 nM | IC50 [17, 42]: 5 nM | IC50 [20, 42]: 32 nM | IC50 [24, 42]: 4 nM

Nc1nc(NC2CC2)c2ncn([C@H]3C=C[C@@H](CO)C3)c2n1 [abacavir]
average reduction in viral load [31]: more than 1.4 log 10 RNA copies/ml | passages until significant decrease in susceptibility [32]: eight to ten | reduction in susceptibility [33]: 10 fold | decrease in HIV-1 susceptibility [34]: 3 fold

C[C@H](Cn1cnc2c(N)ncnc21)OCP(=O)(O)O [tenofovir]
decreased susceptibility [35]: 3 fold | susceptibility in vitro [36]: wild-type or increased susceptibility | decreased susceptibility [37]: approximately 5 fold
